Assay results from patent publication US20160115540A1, “PRODRUGS AND DRUGS” (Biogen MA Inc., priority 2013, published 2016).
Counter-ions that a name gives are not always drawn.

System: blood and tissues
Test: Transcriptional profiling, acute (single) dosing, EAE mice: blood and tissues
Format: in vivo
Details: 100MMF-vs-Veh
Source text: EAE induction is generally performed by immunization with brain extracts, CNS proteins (such as myelin basic protein), or peptides from such protein emulsified in an adjuvant such as complete Freund's adjuvant, e.g., as described in Linker et al., Brain. 2011 March 134(Pt3): 678-92. […] FIG. 17 depicts exemplary immunophenotyping panels used to analyze various immune cell populations (e.g., T cells, T regulatory cells, NK cells, B cells, myeloid cells). […] The number of independent mice whose tissues were harvested for transcript profiling studies and whose data passed QC is shown in TABLE 15. Animals were exposed to CO2 and whole blood collected via cardiac puncture. Two 100 μl aliquots of whole blood were collected in 1.5 mL microcentrifuge tubes and snap frozen in liquid nitrogen. Peripheral (liver, spleen, kidney and jejunum) and CNS brain (cerebellum, hippocampus, striatum and cortex) tissues were harvested and snap frozen in liquid nitrogen, with special care taken to collect tissues of similar size and from the same location. All samples were stored at -80° C. until RNA extraction was conducted. For RNA preparation, frozen tissues were placed in 2 mL RNAse-free 96-well blocks with 1.5 mL QIAzol Lysis Reagent (QIAgen) and a 3.2 mm stainless steel bead (BioSpec Products, Bartlesville, Okla.). Tissues were disrupted for four cycles of 45 seconds in a Mini-Beadbeater (Biospec Products). RNA was extracted in chloroform and the aqueous phase was mixed with an equal volume of 70% ethanol. Extracted RNA was applied to RNeasy 96 plates and purified by the spin method according to the manufacturer's protocol (RNeasy 96 Universal Tissue Protocol, QIAgen, Hilden Germany). 50 ul of snap frozen mouse blood was re-suspended in lysis buffer with proteinase K and arrayed into deep-well plates for automated RNA extraction. RNA extractions were completed on […] (Beckman Coulter, Indianapolis, Ind.) using Agencourt RNAdvance Blood kit (Part number A35604) according to the manufacturer's specifications. RNA integrity was assessed using the HT RNA reagent kit (Part number 760410, Caliper Life Sciences, Hopkinton, Mass.) using a LabChip GX (PerkinElmer, Waltham, Mass.). RNA samples with a RQS score of >8.0 were considered high quality for downstream microarray processing. […] Washing and staining of the hybridized arrays were completed as described in the GeneChip Expression analysis technical manual for HT plate arrays using the Genechip® Array Station (Affymetrix, Santa Clara, Calif.) with modifications as described in […] et al. The processed GeneChip® plate arrays were scanned using GeneTitan scanner (Affymetrix, Santa Clara, Calif.). Affymetrix scans were subject to quality control (QC) measures. These tests included a visual inspection of the distribution of raw signal intensities and an assessment of RNA degradation, relative log expression (RLE), and normalized unscaled standard error (NUSE). All sample scans that passed these QC metrics were included in the analysis. […] Nucleic Acids Res 2003; 31:e15; Li C, et al. Genome Biol 2001; 2:[…]0032). […] Stat Appl Genet Mol Biol 2004; 3:Article3). […] Springer Science+Business Media 2005). […] Generally, no distinct sample groupings were apparent from this analysis; however, in the following cohorts, differences in EAE severity across the mice were manifest in global gene expression patterns: An example of this animal grouping is shown in FIG. 33 for the spinal cord from the chronically-dosed 7 h EAE mice. […] Three distinct groups of mice result from unsupervised clustering, and these animal groups correlate with the cumulative EAE score. […] Subsequent analyses for the cohorts listed above only included those animals with the most severe EAE scores; however, for the cohorts 'Spinal Cord, Acute Dosing, 7 h' and 'Spleen, Acute Dosing, 12 h,' there were an insufficient number of mice in the different treatment groups to perform such a sub-analysis. […]

## COC(=O)/C=C/C(=O)O [MMF, monomethyl fumarate]
spleen, 7 h
  FC Gm6159 /// Hnrnpr 1437526_PM_x_at: 1.50
  FC Gsto1 1456036_PM_x_at: 1.51
  FC Hadhb 1437172_PM_x_at: 1.51
  FC Herpud2 1439424_PM_x_at: 1.62
  FC Higd1c /// Mettl7a1 /// Mettl7a2 1434150_PM_a_at: 2.40
  FC Higd1c /// Mettl7a2 1456510_PM_x_at: 1.61
  FC Homer1 1437363_PM_at: 1.60
  FC Itsn1 1435884_PM_at: 1.69
  FC Kctd3 1455816_PM_a_at: 1.51
  FC Kif22 1437716_PM_x_at: 1.68
  FC Klhl7 1428091_PM_at: 1.77
  FC LOC100047324 /// Sesn1 1438931_PM_s_at: 1.52
  FC Lmcd1 1424596_PM_s_at: 1.64
  FC Lnp 1453035_PM_at: 1.69
  FC Lrrtm2 1455489_PM_at: 1.50
  FC Mcm4 1436708_PM_x_at: 1.72
  FC Metap2 1434120_PM_a_at: 1.52
  FC Mettl7a1 1454858_PM_x_at: 1.63
  FC Mkrn1 1434853_PM_x_at: 1.62
  FC Myef2 1425350_PM_a_at: 1.59
  FC Myof 1427318_PM_s_at: 1.52
  FC Ncapd3 1454952_PM_s_at: 1.66
  FC Nfkb1 1427705_PM_a_at: 1.52
  FC Nqo1 (1423627_PM_at): 3.23
  FC Nudt12 1453139_PM_at: 2.17
  FC Otud5 1438985_PM_x_at: 1.51
  FC Pik3r1 1425514_PM_at: 1.62
  FC Pir (1429001_PM_at): 2.78
  FC Polh 1447837_PM_x_at: 1.64
  FC Prkaca 1447720_PM_x_at: 1.53
  FC Prkar1b 1440132_PM_s_at: 1.50
  FC Prpf40a 1429436_PM_at: 1.65
  FC Psmc6 1417770_PM_s_at: 1.77
  FC Psmd9 1447670_PM_at: 1.73
  FC Rab6 1447776_PM_x_at: 1.51
  FC Rad21 1455938_PM_x_at: 1.58
  FC Ranbp2 1422621_PM_at: 1.50
  FC Ranbp2 1445883_PM_at: 1.61
  FC Rbm39 1442745_PM_x_at: 1.54
  FC Rdx 1416179_PM_a_at: 1.53
  FC Rif1 1429490_PM_at: 1.66
  FC Rlim 1439403_PM_x_at: 1.51
  FC Sec24a 1433934_PM_at: 1.50
  FC Smc4 1427275_PM_at: 1.56
  FC Smc6 1460069_PM_at: 1.52
  FC Smpd4 1429530_PM_a_at: 2.04
  FC Sorbs1 1436737_PM_a_at: 1.71
  FC Sp4 1437508_PM_at: 1.67
  FC Srxn1 (1419942_PM_at): 1.82
  FC Srxn1 (1426875_PM_s_at): 1.94
  FC Srxn1 (1451680_PM_at): 1.68
  FC Suz12 1449661_PM_at: 1.56
  FC Svip 1429146_PM_at: 1.59
  FC Tceb1 1452593_PM_a_at: 1.50
  FC Terf1 1443527_PM_at: 1.71
  FC Thoc1 1420042_PM_at: 1.89
  FC Tmem41b 1428586_PM_at: 1.88
  FC Tmem64 1433735_PM_a_at: 1.70
  FC Tnks2 1447522_PM_s_at: 1.63
  FC Tspyl1 1415908_PM_at: 1.66
  FC Ttc14 1437878_PM_s_at: 1.53
  FC Txnl1 1435235_PM_at: 1.59
  FC Usp14 1437714_PM_x_at: 1.57
  FC Zfp800 1456790_PM_at: 1.83
  FC Zfx 1419565_PM_a_at: 1.50
Whole blood, 7 h
  FC 4930427A07Rik 1455818_PM_at: −1.59
  FC Klra3 /// Klra9 1425436_PM_x_at: −2.05
  FC Klra8 1425417_PM_x_at: −2.10
  FC Rnf128 (1449036_PM_at): 1.54
  FC Serpinb6b 1422804_PM_at: −1.64
  FC Xpc 1422532_PM_at: 1.59
Whole blood, 12 h
  FC 1445666_PM_at: 2.14
  FC Prdm2 1453068_PM_at: 1.70
